Data from ChEMBL document CHEMBL4834478, “Synthesis and biological evaluation of novel 1,4-benzodiazepin-3-one derivatives as potential antitumor agents against prostate cancer” (Bioorg Med Chem, 2021).
Activity calls are given as the source filed them. The calls are words filed in the database; no cut-off is given here.

Assays:
[1] = Metabolic stability in human liver microsomes assessed as compound degradation at 10 uM measured after 15 mins by HPLC method; assay type: ADME, Microsome; details: read-out: Drug degradation
PC-3 [2] = experiment: Antiproliferative activity against human PC3 cells assessed as inhibition of cell growth measured after 72 hrs by MTT assay; assay type: functional
[3] = Metabolic stability in human liver microsomes assessed as compound degradation at 10 uM measured after 30 mins by HPLC method; assay type: ADME, Microsome; details: read-out: Drug degradation
OVCAR-3 [4] = experiment: Antiproliferative activity against human OVCAR-3 cells assessed as inhibition of cell proliferation at 2 uM measured after 48 hrs by MTT assay; assay type: functional, cell-based
[5] = Toxicity in chick embryo assessed as embryo weight at 10 to 50 ug, iv measured after 7 days; assay type: organism-based, Gallus gallus; details: chicken, in vivo, 168 h, dose 10-50 µg, time 7 day
DU-145 = experiment: Antiproliferative activity against human DU-145 cells assessed as inhibition of cell proliferation measured after 72 hrs by MTT assay; assay type: functional, cell-based
PANC-1 [6] = experiment: Antiproliferative activity against human PANC-1 cells assessed as inhibition of cell proliferation at 15 uM measured after 48 hrs by MTT assay; assay type: functional, cell-based
PANC-1 [7] = experiment: Antiproliferative activity against human PANC-1 cells assessed as inhibition of cell proliferation at 2 uM measured after 48 hrs by MTT assay; assay type: functional, cell-based
LNCaP = experiment: Antiproliferative activity against human LNCaP cells assessed as inhibition of cell proliferation measured after 72 hrs by MTT assay; assay type: functional, cell-based
PC-3 [8] = experiment: Antiproliferative activity against human PC3 cells assessed as cellular metabolic activity at 15 uM measured after 48 hrs by MTT assay; assay type: functional
LAPC4 = experiment: Antiproliferative activity against human LAPC4 cells assessed as inhibition of cell proliferation measured after 72 hrs by MTT assay; assay type: functional, cell-based
PC-3 [9] = experiment: Induction of apoptosis in human PC-3 cells assessed as increase in Caspase-3 activity using Z-Asp-Glu-Val-Asp-AMC peptide as substrate at 10 uM measured after 24 to 48 hrs by based flourimetric assay; assay type: functional, cell-based; details: time 24-48 hrs
PC-3 [10] = experiment: Antitumour activity against human PC-3 cells xenografted in chick chorioallantoic membrane assessed as inhibition of tumour growth at 50 ug, iv measured after 7 days; assay type: functional; details: dose 50 µg; time 7 day
PC-3 [11] = experiment: Antiproliferative activity against human PC3 cells assessed as inhibition of cell proliferation at 2 uM measured after 48 hrs by MTT assay; assay type: functional, cell-based
OVCAR-3 [12] = experiment: Antiproliferative activity against human OVCAR-3 cells assessed as inhibition of cell proliferation at 15 uM measured after 48 hrs by MTT assay; assay type: functional, cell-based
PC-3 [13] = experiment: Antitumour activity against human PC-3 cells xenografted in chick chorioallantoic membrane assessed as inhibition of tumour growth at 10 ug, iv measured after 7 days; assay type: functional; details: dose 10 µg; time 7 day
RPTEC = experiment: Cytotoxicity against human RPTEC cells assessed as inhibition of cell proliferation measured after 72 hrs by MTT assay; assay type: cell-based
PC-3 [14] = experiment: Antiproliferative activity against human PC3 cells assessed as inhibition of cell proliferation at 15 uM measured after 48 hrs by MTT assay; assay type: functional, cell-based

Compound	metabolised at 0.25 h, 10 µM [1] [%]	GI50 (PC-3 [2]) [µM]	metabolised at 0.5 h, 10 µM [3] [%]	Activity (OVCAR-3 [4])	Activity [5]	Activity (DU-145)	Activity (PANC-1 [6])	Activity (PANC-1 [7])	Activity (LNCaP)	Activity (PC-3 [8]) [%]	Activity (LAPC4)	Activity (PC-3 [9])	TGI (PC-3 [10]) [%]	Activity (PC-3 [11])	Activity (OVCAR-3 [12])	TGI (PC-3 [13]) [%]	Activity (RPTEC)	Activity (PC-3 [14])
CC(C)(C)NC(=O)[C@H]1c2cc([N+](=O)[O-])ccc2N[C@@H](Cc2ccccc2)C(=O)N1Cc1ccccc1	26	10.8	41															
CC(C)C[C@@H]1Nc2ccc([N+](=O)[O-])cc2C(C(=O)NC(C)(C)C)N(Cc2ccc3c(c2)OCO3)C1=O (mixture of isomers)				inactive			inactive	inactive						inactive	Active			Active
CC(C)C[C@@H]1Nc2ccc([N+](=O)[O-])cc2C(C(=O)NC(C)(C)C)N(Cc2ccccc2)C1=O (mixture of isomers)				inactive			inactive	inactive						inactive	Active			Active

The next lines start with results.

metabolised at 0.25 h, 10 µM [1] [%]	GI50 (PC-3 [2]) [µM]	metabolised at 0.5 h, 10 µM [3] [%]	Compound	Activity (OVCAR-3 [4])	Activity [5]	Activity (DU-145)	Activity (PANC-1 [6])	Activity (PANC-1 [7])	Activity (LNCaP)	Activity (PC-3 [8]) [%]	Activity (LAPC4)	Activity (PC-3 [9])	TGI (PC-3 [10]) [%]	Activity (PC-3 [11])	Activity (OVCAR-3 [12])	TGI (PC-3 [13]) [%]	Activity (RPTEC)	Activity (PC-3 [14])
41	7	50	CC(C)(C)NC(=O)[C@@H]1c2cc([N+](=O)[O-])ccc2N[C@@H](Cc2ccccc2)C(=O)N1Cc1ccccc1															
	10.2		CC(C)(C)NC(=O)C1c2cc([N+](=O)[O-])ccc2N[C@@H](Cc2ccccc2)C(=O)N1Cc1ccccc1 (mixture of isomers)	inactive	Non-Toxic	inactive	inactive	inactive	inactive	30	inactive	Active	53	inactive	Active	45	Non-Toxic	
